Assay results published in patent US20250120967A1, “TYROSINE KINASES INHIBITORS AND USES THEREOF” (GREAT NOVEL THERAPEUTICS BIOTECH & MEDICALS CORPORATION, priority 2023, published 2025).

Tests used:
Test in all cases: Tyrosine kinase inhibition assay
Assay type in all cases: biochemical
Details in all cases: single concentration 1.0 μM, read-out: percent inhibition
EPHA3 = molecular target: T1, EPHA3 (Homo sapiens, UniProt P29320)
T1 sequence (P29320 21-983): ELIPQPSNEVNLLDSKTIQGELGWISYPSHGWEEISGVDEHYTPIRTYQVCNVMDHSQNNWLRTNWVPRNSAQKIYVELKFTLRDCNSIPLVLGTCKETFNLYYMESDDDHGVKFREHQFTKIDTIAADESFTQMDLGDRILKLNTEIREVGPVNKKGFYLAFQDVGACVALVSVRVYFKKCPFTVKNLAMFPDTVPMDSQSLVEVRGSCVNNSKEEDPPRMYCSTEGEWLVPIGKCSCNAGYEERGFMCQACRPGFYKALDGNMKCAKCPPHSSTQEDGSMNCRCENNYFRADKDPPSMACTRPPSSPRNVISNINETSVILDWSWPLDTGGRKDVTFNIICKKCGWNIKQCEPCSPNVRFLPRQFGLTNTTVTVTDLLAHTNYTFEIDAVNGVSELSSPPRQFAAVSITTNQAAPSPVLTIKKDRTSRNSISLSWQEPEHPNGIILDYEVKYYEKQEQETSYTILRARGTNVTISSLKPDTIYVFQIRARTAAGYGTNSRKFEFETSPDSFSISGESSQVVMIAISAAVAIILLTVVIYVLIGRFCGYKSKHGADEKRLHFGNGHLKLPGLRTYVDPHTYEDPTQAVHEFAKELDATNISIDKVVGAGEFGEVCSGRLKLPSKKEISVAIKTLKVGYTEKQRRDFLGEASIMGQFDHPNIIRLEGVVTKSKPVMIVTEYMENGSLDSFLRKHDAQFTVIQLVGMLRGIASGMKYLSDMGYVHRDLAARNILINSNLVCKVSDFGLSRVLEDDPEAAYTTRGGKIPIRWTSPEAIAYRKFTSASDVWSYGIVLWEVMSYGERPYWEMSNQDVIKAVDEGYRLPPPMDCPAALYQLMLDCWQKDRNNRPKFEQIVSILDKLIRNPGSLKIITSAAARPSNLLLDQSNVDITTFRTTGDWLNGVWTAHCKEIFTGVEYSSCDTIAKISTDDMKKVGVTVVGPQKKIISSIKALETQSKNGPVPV
Procedure, shortened: (§1)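 Kinase activity was measured by Z′-LYTE peptide assay with ATP at the apparent Km, in kinase buffer (50 mM HEPES pH 7.5, 0.01% BRIJ-35, 10 mM MgCl2, 1 mM EGTA) with 1% DMSO final. Compounds were tested at a single 1.0 μM concentration and reported as percent inhibition; >80% counted as a hit.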

MAP4K3 (GLK) = molecular target: T2, MAP4K3 (GLK) (Homo sapiens, UniProt Q8IVH8)
T2 sequence (Q8IVH8 1-894): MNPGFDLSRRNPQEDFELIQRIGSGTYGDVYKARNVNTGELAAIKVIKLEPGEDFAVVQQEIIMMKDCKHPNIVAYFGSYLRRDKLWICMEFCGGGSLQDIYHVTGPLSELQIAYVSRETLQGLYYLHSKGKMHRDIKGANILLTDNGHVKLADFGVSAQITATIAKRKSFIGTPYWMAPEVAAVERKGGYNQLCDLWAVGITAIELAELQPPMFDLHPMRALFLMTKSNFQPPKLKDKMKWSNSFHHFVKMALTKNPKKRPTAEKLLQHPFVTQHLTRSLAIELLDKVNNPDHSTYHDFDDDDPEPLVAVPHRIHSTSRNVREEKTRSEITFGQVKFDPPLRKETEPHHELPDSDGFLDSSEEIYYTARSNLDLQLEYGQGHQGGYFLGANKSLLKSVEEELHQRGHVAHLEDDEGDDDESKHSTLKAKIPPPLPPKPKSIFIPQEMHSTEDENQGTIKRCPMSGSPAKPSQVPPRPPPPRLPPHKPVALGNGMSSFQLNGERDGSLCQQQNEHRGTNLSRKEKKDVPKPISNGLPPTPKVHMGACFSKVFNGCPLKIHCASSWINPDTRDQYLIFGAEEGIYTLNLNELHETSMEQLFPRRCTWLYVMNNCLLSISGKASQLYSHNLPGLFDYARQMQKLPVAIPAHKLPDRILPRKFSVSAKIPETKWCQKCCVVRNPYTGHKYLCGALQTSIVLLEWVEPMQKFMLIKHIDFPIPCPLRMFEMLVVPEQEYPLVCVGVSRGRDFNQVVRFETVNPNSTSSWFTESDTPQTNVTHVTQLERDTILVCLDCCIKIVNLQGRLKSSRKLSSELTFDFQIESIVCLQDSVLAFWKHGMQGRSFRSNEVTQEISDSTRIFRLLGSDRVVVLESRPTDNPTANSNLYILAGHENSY
Procedure, shortened: as §1

PEAK1 = PEAK1 (Homo sapiens, UniProt Q9H792)
Procedure, shortened: as §1

TNK2 (ACK) = TNK2 (ACK) (Homo sapiens, UniProt Q07912)
Procedure, shortened: as §1

Sequence of TNK2 (ACK) (Q07912 whole entry): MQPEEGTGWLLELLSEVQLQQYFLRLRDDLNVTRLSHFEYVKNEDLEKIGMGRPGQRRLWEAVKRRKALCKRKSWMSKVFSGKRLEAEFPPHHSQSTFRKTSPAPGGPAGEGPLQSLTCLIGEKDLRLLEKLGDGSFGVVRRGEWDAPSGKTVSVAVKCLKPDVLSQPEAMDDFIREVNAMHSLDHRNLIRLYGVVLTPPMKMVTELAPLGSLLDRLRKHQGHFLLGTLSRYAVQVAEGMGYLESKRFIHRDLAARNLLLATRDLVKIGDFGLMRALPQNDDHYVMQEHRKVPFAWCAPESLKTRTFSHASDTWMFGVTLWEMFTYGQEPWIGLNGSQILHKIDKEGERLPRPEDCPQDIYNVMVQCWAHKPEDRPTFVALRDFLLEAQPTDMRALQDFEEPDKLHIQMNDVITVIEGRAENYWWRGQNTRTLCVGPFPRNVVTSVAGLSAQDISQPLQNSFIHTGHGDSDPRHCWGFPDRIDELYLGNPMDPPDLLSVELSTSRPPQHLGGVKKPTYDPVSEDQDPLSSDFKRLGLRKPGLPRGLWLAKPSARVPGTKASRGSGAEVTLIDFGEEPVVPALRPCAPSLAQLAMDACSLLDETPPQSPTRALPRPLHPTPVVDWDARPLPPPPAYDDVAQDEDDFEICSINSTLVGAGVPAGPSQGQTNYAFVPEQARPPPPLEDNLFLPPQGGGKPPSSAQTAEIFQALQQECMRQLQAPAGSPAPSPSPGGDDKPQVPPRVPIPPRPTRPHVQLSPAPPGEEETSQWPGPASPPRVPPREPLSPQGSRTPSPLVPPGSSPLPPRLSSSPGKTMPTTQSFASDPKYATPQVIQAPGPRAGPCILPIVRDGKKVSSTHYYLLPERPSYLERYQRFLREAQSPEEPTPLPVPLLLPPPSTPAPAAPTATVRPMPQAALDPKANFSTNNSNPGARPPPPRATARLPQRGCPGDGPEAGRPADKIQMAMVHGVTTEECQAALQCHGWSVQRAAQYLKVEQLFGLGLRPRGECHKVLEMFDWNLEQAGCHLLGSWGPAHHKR
Sequence of PEAK1 (Q9H792 whole entry): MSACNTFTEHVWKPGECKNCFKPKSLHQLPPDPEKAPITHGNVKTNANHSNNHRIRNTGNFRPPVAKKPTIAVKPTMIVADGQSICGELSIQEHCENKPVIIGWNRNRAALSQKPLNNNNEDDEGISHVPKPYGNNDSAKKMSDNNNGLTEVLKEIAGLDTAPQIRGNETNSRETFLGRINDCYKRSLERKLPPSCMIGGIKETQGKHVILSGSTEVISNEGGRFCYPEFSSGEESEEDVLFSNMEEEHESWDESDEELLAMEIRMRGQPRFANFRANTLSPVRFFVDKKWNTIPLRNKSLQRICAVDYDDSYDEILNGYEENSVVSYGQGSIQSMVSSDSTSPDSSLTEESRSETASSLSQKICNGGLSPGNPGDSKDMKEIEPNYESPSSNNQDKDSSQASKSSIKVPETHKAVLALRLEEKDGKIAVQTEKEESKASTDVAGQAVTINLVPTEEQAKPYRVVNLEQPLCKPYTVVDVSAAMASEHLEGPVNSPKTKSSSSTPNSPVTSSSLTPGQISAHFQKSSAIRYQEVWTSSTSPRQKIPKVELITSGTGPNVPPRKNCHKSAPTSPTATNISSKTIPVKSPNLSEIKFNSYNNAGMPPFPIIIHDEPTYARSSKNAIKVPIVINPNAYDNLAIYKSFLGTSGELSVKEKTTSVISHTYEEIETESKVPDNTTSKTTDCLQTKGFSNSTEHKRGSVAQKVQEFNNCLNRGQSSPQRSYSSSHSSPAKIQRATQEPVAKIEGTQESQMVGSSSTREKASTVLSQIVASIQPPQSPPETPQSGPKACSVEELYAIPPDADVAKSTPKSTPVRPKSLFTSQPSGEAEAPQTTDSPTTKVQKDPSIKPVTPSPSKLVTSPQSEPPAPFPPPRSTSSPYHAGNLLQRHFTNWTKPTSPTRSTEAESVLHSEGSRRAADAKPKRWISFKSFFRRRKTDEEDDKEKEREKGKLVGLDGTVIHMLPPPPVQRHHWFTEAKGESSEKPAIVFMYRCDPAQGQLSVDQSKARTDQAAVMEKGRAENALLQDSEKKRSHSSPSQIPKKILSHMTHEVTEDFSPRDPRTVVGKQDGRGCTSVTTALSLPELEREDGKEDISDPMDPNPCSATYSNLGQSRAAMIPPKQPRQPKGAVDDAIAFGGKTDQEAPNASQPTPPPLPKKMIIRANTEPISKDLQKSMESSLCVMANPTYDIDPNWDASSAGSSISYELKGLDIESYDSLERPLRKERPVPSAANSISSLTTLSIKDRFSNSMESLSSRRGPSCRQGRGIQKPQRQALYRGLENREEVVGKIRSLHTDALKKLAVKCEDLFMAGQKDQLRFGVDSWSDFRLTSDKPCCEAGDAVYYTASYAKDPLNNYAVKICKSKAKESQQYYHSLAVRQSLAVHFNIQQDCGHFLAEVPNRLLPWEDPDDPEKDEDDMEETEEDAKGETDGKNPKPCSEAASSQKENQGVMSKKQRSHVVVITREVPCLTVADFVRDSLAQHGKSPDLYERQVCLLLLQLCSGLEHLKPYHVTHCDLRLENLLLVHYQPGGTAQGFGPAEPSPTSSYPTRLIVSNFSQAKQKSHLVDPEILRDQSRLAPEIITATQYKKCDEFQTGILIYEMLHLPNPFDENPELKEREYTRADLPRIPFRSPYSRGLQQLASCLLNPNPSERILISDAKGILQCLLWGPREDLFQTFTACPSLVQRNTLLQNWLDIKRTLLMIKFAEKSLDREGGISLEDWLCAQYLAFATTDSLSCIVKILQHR

Row | Structure (SMILES) | inhibition at 1 µM (EPHA3) | inhibition at 1 µM (MAP4K3 (GLK)) | inhibition at 1 µM (PEAK1) | inhibition at 1 µM (TNK2 (ACK))
1 | COc1cc2nccc(Oc3ccc(NC(=O)C4(C(=O)Nc5ccc(F)cc5)CC4)cc3)c2cc1OC [Cabozantinib, reference compound] | 100% | 48% | 85% | 61%
2 | COc1cc2nccc(Oc3ccc(NC(=O)C4(NC(=O)c5ccc(F)cc5)CC4)cc3F)c2cc1OC [Cbo-02, N-(1-((4-((6,7-diMethoxyquinolin-4-yl)oxy)-3-fluorophenyl)carbamoyl)cyclopropyl)-4-fluorobenzamide] | -3% | 43% | 38% | 63%
3 | COc1cc2nccc(Oc3ccc(NC(=O)C4(NC(=O)c5ccc(F)cc5)CC4)cc3F)c2cc1Oc1ccc(N)cc1F [Cbo-10] | 14% | 59% | 55% | 95%
4 | COc1cc2nccc(Oc3ccc(NC(=O)C4(NC(=O)c5ccc(F)cc5)CC4)cc3F)c2cc1Oc1c(F)cc(N)cc1F [Cbo-14] | 24% | 58% | 64% | 96%
5 | COc1cc2nccc(Oc3ccc(NC(=O)C4(C(=O)Nc5ccc(F)cc5)CC4)cc3F)c2cc1Oc1ccc(N)cc1F [Cbo-23] | 97% | 41% | – | 89%
